Experimental findings from PMC4192288 (Endocrinology, 2013) are described below.

The experiment concerns the target T1, 11β-hydroxysteroid dehydrogenase type 1 (11β-HSD1) (Mus musculus, UniProt P50172).
T1 construct: gene Hsd11b1; recombinant 11β-HSD1
Description: HTRF cortisol competitive assay with recombinant […]β-HSD1; also […] ex vivo inhibition in mouse liver. It is filed as biochemical. On the technique in general: In TR-FRET formats the signal depends on donor and acceptor labels being close together.

T1 sequence (P50172 whole entry): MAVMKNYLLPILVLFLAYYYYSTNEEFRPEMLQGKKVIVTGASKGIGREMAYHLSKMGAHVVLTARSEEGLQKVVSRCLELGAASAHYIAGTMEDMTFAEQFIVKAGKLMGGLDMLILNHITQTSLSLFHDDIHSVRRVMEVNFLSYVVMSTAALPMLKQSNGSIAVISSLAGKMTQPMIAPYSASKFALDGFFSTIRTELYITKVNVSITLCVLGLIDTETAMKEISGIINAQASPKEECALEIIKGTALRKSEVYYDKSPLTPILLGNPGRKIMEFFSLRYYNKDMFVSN

On to `F[C@H]1C[C@](c2ccc(Cl)cc2)(c2nnc(C3CC3)n2C2CC2)C1` [MK-0916, 3-[1-(4-chlorophenyl)-3-fluorocyclobutyl]-4,5-dicyclopropyl-1,2,4-triazole], for which the IC50 (as a rule, the point on the concentration scale where inhibition reaches its midpoint) worked out at 30 nM.
